Test results as given in patent US20140271534A1, “COMPOUNDS, COMPOSITIONS, AND METHODS FOR REPELLING AN INSECT FROM AN AREA, ARTICLE, AND/OR STRUCTURE” (BAYER CROPSCIENCE LP, priority 2013, published 2014).

Legend:
honeybees = assay: honeybee repulsion experiment, feeding stations with 50% sucrose; type: in vivo; settings: for repellency to honeybees at 24 hours: 2% by weight in 50% sucrose feeder
Procedure: FIG. 1 describes the feeding station arrangement (A and B) for the honeybee repulsion experiments described herein. As set forth in FIG. 1, panel (A) sets forth the bee cage positions on the left portion of panel (A) with the randomized feeding station positions on the right portion of panel (A). Panel (B) sets forth an alignment of the randomized feeding station positions with a distance of two meters between feeding stations. A total of eight feeding stations were evaluated at a ten meter distance in front of the respective bee hives. The feeding stations were placed two meters apart from one another.
Honeybees were trained to deep feeders (eight positions), each containing a 50% sucrose solution for one day. After the honeybees were trained to each feeder, the 50% sucrose feeder at randomized positions 1-8 was replaced with a shallow feeder containing a combination of repelling compounds and a 50% sucrose solution according to Table 3. In accordance with FIGS. 5 and 6, 2% by weight of Camphor oil (T4), Ajowan oil (T5), Camphor powder (T6), Rosemary oil (T7), and 2-Decanone (T8) in combination with a 50% sucrose treatment were added to feeders on day two.
Table 3 describes active agents evaluated for bee repulsion and their randomized feeding station positions. As described in Table 3, T1 (control), T2 (control), T3 (control), T4 (Camphor oil), T5 (Ajowan oil), T6 (Camphor powder), T7 (Rosemary oil), and T8 (2-Decanone).
FIG. 5 evaluates the number of bees visiting a respective feed station over a time interval. FIG. 6 sets forth the mean number of honeybees visiting feeding station over a period of four hours.

[1] = stability test of Poncho 600 combined with α-terpineol, clothianidin content by HPLC; type: physicochemical; settings: in Poncho combined with alpha-terpineol; up to 54° C. for eight days
Procedure: Table 5 describes a stability test with a combination of α-terpineol and Poncho 600 evaluated at room temperature, 40° C., and 54° C. at zero time, 2 days, and 8 days as confirmed by HPLC.

[2] = stability test of Poncho combined with Eugenol, clothianidin content by HPLC; type: physicochemical; settings: in Poncho combined with Eugenol; up to 54° C. for seven days
Procedure: Table 4 describes a stability test with a combination of Eugenol and Poncho evaluated at room temperature, 40° C., and 54° C. at zero time, 3 days, and 7 days as confirmed by high performance liquid chromatography (HPLC).

Row | Structure (SMILES) | repellency to honeybees at 24 hours (honeybees) | repellency to honeybees at 24 hours (honeybees; listed as 2-decanone) | repellency to honeybees over the full 4 hour assessment period (honeybees; in 50% sucrose feeder, 4 hour assessment period) | chemical stability of clothianidin content [1] | chemical stability of clothianidin content [2]
1 | CCCCCCCCC(C)=O [Compound 2-Decanone, 2-decanone] | exhibited repellency | still repellent | highly repellent | – | –
2 | CN/C(=N\[N+](=O)[O-])NCc1cnc(Cl)s1 [clothianidin] | – | – | – | exhibited chemical stability | exhibited chemical stability
